According to patent publication US11207322B2, “Method and composition related to combination therapy for addiction” (Board of Regents, The University of Texas System, priority 2017, dated 2021):
Entries after “also recorded” stand apart in the source; their conditions may differ.

Assays:
5-HT2C receptors = conditions: in vivo; cited from earlier work
humans [1] = conditions: cited from earlier work
[2] = system: rhesus and cynomolgus monkeys; conditions: in vivo; cited from earlier work
[3] = system: rhesus monkeys responding for 0.032 mg/kg/inf cocaine; test: cocaine self-administration under a progressive ratio (PR) schedule; assay type: in vivo, rhesus monkey; conditions: for effect on PR responding for cocaine (reinforcing effectiveness of cocaine): 0.032 mg/kg/inf cocaine, 4 rhesus monkeys (2 male, 2 female), acute
[4] = system: rhesus monkeys, responding reinstated by cocaine; test: cocaine-primed reinstatement of extinguished responding for cocaine; assay type: in vivo, rhesus monkey; conditions: 0.32 mg/kg cocaine prime; 4 rhesus monkeys
Experimental: Reinstatement of responding for cocaine.
Experimental design. Monkeys will respond for 0.032 mg/kg/inf cocaine under a FR30:TO180-sec schedule of reinforcement during daily 90-min sessions. During extinction, all stimulus lights will be extinguished with responding being recorded but having no scheduled consequence. During reinstatement tests, the drug-associated stimuli (i.e., the green and red stimulus lights) will be presented according to an FR30:TO180-sec schedule but no infusions will be delivered. Priming infusions of cocaine or saline will be injected directly into the vascular access port (followed by a 5-ml saline flush) 5 min before the start of the session.
The acute effects of lorcaserin (0.1-3.2 mg/kg; SC; 15 min PT) and buspirone (0.1-3.2 mg/kg; SC; 15 min PT) alone will be studied prior to evaluating mixtures. Because the nature of drug-drug interactions can vary depending upon the composition of the mixture, lorcaserin and buspirone will be evaluated over at least three fixed-dose pairs of at least three fixed-ratios (i.e., 3:1, 1:1, and 1:3), using the strategy described above. Mixtures will be based on the effects of lorcaserin and buspirone alone and customized to individual monkeys. […] Additional fixed-ratios mixtures (10:1 or 1:10) will be evaluated if significant, non-additive interactions are observed with either 3:1 or 1:3 ratios, respectively. […]

[5] = system: rhesus monkeys responding for 0.032 mg/kg/inf cocaine; conditions: cited from earlier work; for effectiveness on cocaine self-administration with daily dosing: administered daily for 10-14 days
[6] = molecular target: T1, 5-HT2C over 5-HT2A receptors (Homo sapiens, UniProt P28335); conditions: cited from earlier work
T1 construct: expressed in transfected cells
T1 sequence (P28335 33-458): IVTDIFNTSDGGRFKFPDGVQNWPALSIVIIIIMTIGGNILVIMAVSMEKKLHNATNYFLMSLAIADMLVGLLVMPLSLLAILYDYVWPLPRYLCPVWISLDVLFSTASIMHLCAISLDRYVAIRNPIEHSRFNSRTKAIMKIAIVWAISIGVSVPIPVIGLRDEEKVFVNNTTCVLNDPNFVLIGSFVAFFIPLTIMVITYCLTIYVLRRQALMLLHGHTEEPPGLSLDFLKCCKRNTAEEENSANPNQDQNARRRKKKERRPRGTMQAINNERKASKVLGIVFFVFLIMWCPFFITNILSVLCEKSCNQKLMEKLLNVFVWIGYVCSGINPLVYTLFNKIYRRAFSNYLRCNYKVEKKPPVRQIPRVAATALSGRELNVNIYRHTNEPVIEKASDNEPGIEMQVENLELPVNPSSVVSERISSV

[7] = molecular target: T2, 5-HT2C over 5-HT2B receptors (Homo sapiens, UniProt P28335); conditions: cited from earlier work
T2 construct: expressed in transfected cells
T2 sequence (P28335 33-458): T1 sequence (P28335 33-458)

obese adults = conditions: in vivo; cited from earlier work
recreational drug users = conditions: 20-60 mg; cited from earlier work
5-HT2A receptor = conditions: doses comparable to those required to reduce body weight in rats; cited from earlier work
[8] = e.g., valvulopathies; cited from earlier work
DA D3 receptor [9] = molecular target: T3, DA D3 receptor (Homo sapiens, UniProt P35462); conditions: cited from earlier work
humans [10] = conditions: cited from earlier work; remark: listed apart in the source
DA D3 receptor [11] = molecular target: T3, DA D3 receptor; conditions: in vivo; cited from earlier work
[12] = functional assays, transfected cells

T3 sequence (P35462 whole entry): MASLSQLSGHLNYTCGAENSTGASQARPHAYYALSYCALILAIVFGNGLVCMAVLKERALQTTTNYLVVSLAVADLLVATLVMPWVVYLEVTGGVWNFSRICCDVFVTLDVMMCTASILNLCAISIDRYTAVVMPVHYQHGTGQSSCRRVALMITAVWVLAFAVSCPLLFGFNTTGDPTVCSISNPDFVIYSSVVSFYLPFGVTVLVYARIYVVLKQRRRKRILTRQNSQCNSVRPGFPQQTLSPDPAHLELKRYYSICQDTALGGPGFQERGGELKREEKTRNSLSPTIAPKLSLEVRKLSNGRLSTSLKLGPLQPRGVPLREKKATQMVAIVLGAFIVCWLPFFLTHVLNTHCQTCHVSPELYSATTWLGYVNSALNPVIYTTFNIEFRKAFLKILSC

For Clc1cccc(N2CCNCC2)c1 [mCPP, meta-chlorophenylpiperazine], the “cocaine self-administration and/or reinstatement” value (5-HT2C receptors) is listed as “decrease cocaine self-administration and/or inhibit the reinstatement of a response previously reinforced by cocaine”.
In the case of C[C@@H](Cc1ccccc1)NC(=O)[C@@H](N)CCCCN [lisdexamfetamine], the “cocaine abstinence in a clinical setting” value (humans [1]; doses approved to treat ADHD) is given as “often ineffective at improving cocaine abstinence” and the “cocaine self-administration in monkeys (literature)” value [2] is given as “consistently reduce cocaine self-administration”.
In the case of Clc1cncc(N2CCNCC2)n1 [MK 212], the “cocaine self-administration and/or reinstatement” value (5-HT2C receptors) is listed as “decrease cocaine self-administration and/or inhibit the reinstatement of a response previously reinforced by cocaine”.
For Clc1cccc(COc2cncc(N3CCNCC3)n2)c1 [CP-809,101], the “cocaine self-administration and/or reinstatement” value (5-HT2C receptors) is listed as “decrease cocaine self-administration and/or inhibit the reinstatement of a response previously reinforced by cocaine”.
With C[C@H]1CNCCc2ccc(Cl)cc21 [lorcaserin] the “effect on PR responding for cocaine (reinforcing effectiveness of cocaine)” value [3] was “inhibited responding in a dose-dependent manner; also recorded: dose-dependently decreases the reinforcing effectiveness of cocaine”, the “sensitivity of females relative to males” value ([3]; PR schedule, 2 male and 2 female monkeys, females more sensitive) was roughly 3 fold and the “effectiveness of cocaine to reinstate extinguished responding for cocaine” value [4] was “dose-dependently decreases”. The “cocaine self-administration under fixed ratio and PR schedules (earlier report of the inventors)” value ([5]; acute administration) was “dose-dependently inhibits cocaine self-administration”, the “effectiveness on cocaine self-administration with daily dosing” value [5] was “retain their effectiveness to reduce cocaine self-administration” and the “persistence of anti-cocaine effects” value ([5]; repeated (daily) treatment) was “at least 14 days”. The “selectivity for 5-HT2C over 5-HT2A receptors” value [6, 12] was roughly 20 fold, the “selectivity over the 5-HT2A receptor” value ([6]; in vitro testing) was 17 × and the “selectivity for 5-HT2C over 5-HT2B receptors” value [7, 12] was roughly 100 fold. For the same compound, the “selectivity for (5-HT)2C versus 5-HT2B receptor” value ([7]; in vitro testing) was 100 ×, the weight loss (obese adults) was “modest, but sustained weight loss” and the “subjective effects of supra-therapeutic doses” value (recreational drug users) was “subjective ratings of “high”, “good drug effects” and “hallucination””. For the same compound, the head-twitches (5-HT2A receptor) was “produces 5-HT2A receptor-mediated head-twitches” and the cardiovascular complications [8] was “devoid of serious cardiovascular complications”.
For C[C@H](N)Cn1ccc2cc(F)c(Cl)cc21 [Ro 60-0175], the “cocaine self-administration and/or reinstatement” value (5-HT2C receptors) is listed as “decrease cocaine self-administration and/or inhibit the reinstatement of a response previously reinforced by cocaine”.
In the case of c1cc2c3c(c1)[C@H]1CCC[C@H]1N3CCNC2 [WAY-163909], the “cocaine self-administration and/or reinstatement” value (5-HT2C receptors) is listed as “decrease cocaine self-administration and/or inhibit the reinstatement of a response previously reinforced by cocaine”.
In the case of O=C1CC2(CCCC2)CC(=O)N1CCCCN1CCN(c2ncccn2)CC1 [buspirone], the “effect on PR responding for cocaine (reinforcing effectiveness of cocaine)” value [3] is reported as “inhibited responding in a dose-dependent manner; also recorded: dose-dependently decreases the reinforcing effectiveness of cocaine”, the “potency in males relative to females at decreasing cocaine self-administration” value ([3]; PR schedule, 2 male and 2 female monkeys, more potent in males) is reported as roughly 10 fold and the “effectiveness of cocaine to reinstate extinguished responding for cocaine” value [4] is reported as “dose-dependently decreases”. For the same compound, the “effectiveness on cocaine self-administration with daily dosing” value [5] was “retain their effectiveness to reduce cocaine self-administration”, the “selective binding profile at DA D3 receptors” value (DA D3 receptor [9]) was 5-70 fold and the “relative potency at 5-HT1A, DA D3, and DA D4 receptors” value (DA D3 receptor [9]; recent studies) was “roughly equipotent”. The “reinforcing effects of cocaine in a human laboratory study” value (humans [10]; 30 mg) was “failed to alter the reinforcing effects of cocaine”, the “sex-related difference in promoting abstinence” value (humans [1]; 60 mg dose) was “more effective at promoting abstinence in males than in females” and the “abstinence from cocaine use, multi-site randomized double-blind placebo-controlled pilot study” value (humans [1]; 60 mg) was “failed to prolong abstinence from cocaine use”. The “dose needed for clinically relevant DA D3 receptor occupancy relative to 60 mg maximal approved dose” value (DA D3 receptor [11]) was “at least 3 fold”, the “cocaine self-administration in monkeys (literature)” value [2] was “reliably decreased cocaine self-administration” and the cardiovascular complications [8] was “devoid of serious cardiovascular complications”.
For CN1CCc2cc(Cl)c(O)cc2[C@H]2c3ccccc3CC[C@@H]21 [ecopipam], the “subjective or reinforcing effects of cocaine in humans” value (humans [10]; doses that did not produce sedation) is listed as “failed to alter the subjective or reinforcing effects of cocaine”.
